Data as given in patent US9414901B2, “Drug-eluting stents for adenosine receptor modulation” (Indiana University Research and Technology Corporation, priority 2009, dated 2016).
Converted amounts (≈) assume the structure as drawn. Blank lines part the entries; values can stand above or below the compound they belong to.

Assays:
[1] = system: porcine CSM (coronary artery smooth muscle cells); assay: CSM proliferation/viability by MTT assay on collagen matrix/DPCPX-loaded PU film; type: cell-based, Ossabaw pigs; conditions: no DPCPX release, day 4
Method: A drug eluting film coated on the cover glass was placed in each well of a 24-well plate for a cell culture study.
Hearts were harvested from Ossabaw pigs. Coronary arteries dissected from the hearts were placed in a physiological buffer. Porcine CSM were enzymatically dispersed from coronary arteries using collagenase solutions. Primary cultured CSM were subcultured at 37° C. with 5% CO2 in DMEM containing 10% fetal bovine serum (FBS). CSM cultured with 80% confluence were used between passage 4 and 10.
The CSM were seeded on the surface of type I collagen that was gelated on the DPCPX-loaded PU film. The DPCPX-loaded PU films with various drug/polymer ratios and pure PU film as a control were placed in 24-well plates. Collagen solution was prepared by mixing eight parts of PURECOL (3 mg/mL) with one part of 10×PBS. The pH of the collagen solution was adjusted to 7.4 by adding 0.01 N HCl and 0.1 M NaOH. […] Subcultured CSM were suspended by trypsinization, counted and seeded on the collagen matrix/DPCPX-loaded PU film in 24 wells. […]
After 4 days, cell proliferation was estimated using an MTT cell growth assay kit (Chemicon International). […] The absorbance was read at 490 nm, which was directly proportional to the number of living cells. The measured absorbance in each treatment group was compared to the percent of control. […]

[2] = system: porcine CSM; conditions: cited from earlier work
[3] = system: in-stent coronary stenosis in metabolic syndrome pigs; assay: In-stent stenosis by IVUS 4 weeks after coronary stenting; type: in vivo, Ossabaw miniature swine; conditions: IVUS at 4 weeks
Text: Under angiographic guidance, polymer- and DPCPX-eluting stents were placed in either left circumflex (CFX) or left anterior descending (LAD) artery of anesthetized male Ossabaws by random assignment.
A stainless steel stent deployment was utilized to cause vascular injury, which leads to coronary neointima formation (in-stent stenosis) in lean Ossabaw swine and in Ossabaw swine with metabolic syndrome (also known as pre-diabetes).
Stents were inflated to 1.1× of lumen diameter. The right coronary artery (RC) served as a non-stented control. Pigs were allowed to recover for 4 weeks, then sacrificed, and coronary arteries were harvested for tissue analysis.
In-stent stenosis was quantified as the percent area covered with stenotic lesions in in-stent coronary segments in vivo using intravascular ultrasound (IVUS) right before sacrifice. Percent area in-stent stenosis=Area of Neointima/Area of Original Lumen indicated by stent struts×100.
Bare metal and paclitaxel stents were deployed in coronary arteries of lean and metabolic syndrome (MetS) pigs (n=5/group) with stent:artery ratios at 1.0 (A) and 1.3 (B), *p<0.01. Polymer-coated (Polymer, control) and DPCPX-eluting stents (DPCPX) were deployed concurrently in coronary arteries with stent:artery ratio of 1.1 in lean and MetS pigs (n=5/group, C), *p<0.01. (A-C) IVUS was done 4 weeks after stenting in vivo to evaluate in-stent stenosis. Percent area stenosis of in-stent segments was quantified by IVUS.

[4] = physchem; conditions: thermodynamic from solid
[5] = In vitro DPCPX release from coated stents in PBS (HPLC); type: physicochemical; conditions: stents coated with DPCPX in polymer-1 or polymer-2 (PLGA), 30% and 50% DPCPX/polymer, PBS buffer
Method: The drug elution profiles of the two different sets of PU films were examined instead of expanded state of stents. […] The release rate was slightly accelerated with the increase in the drug/PU ratio on the stent coated at the constant drug density of 1 μg/mm^2 (30%>20%>10% DPCPX/PU ratio).
In the drug release study, 2 mL of PBS buffer was used as a release medium which was replaced with a fresh solution every day. Release profiles may be partially affected by dissolution-limited release in addition to diffusion-limited release. Previous studies used 1.5 mL of medium with addition of 10% ethanol or 1.5 mL of PBS with 0.005% Tween 20 per stent. Addition of ethanol in the release medium removed the solubility limitation, but ethanol affected the release profiles as confirmed in the accelerated release studies; thus, ethanol was not used in this study.
Stainless steel stents were coated with polymer and DPCPX in concentrations that optimized in vitro elution kinetics of DPCPX (FIG. 5). Stents used for in vivo testing were coated with 300 μg DPCPX and 700 μg PLGA ([…]) polymer. A1R selective antagonist-DPCPX was dissolved in THF along with polymer-1 and polymer-2. The solutions were spray coated on stainless steel stents. […] The amounts of released DPCPX were analyzed using HPLC. […]

[6] = system: ERK, JNK and PI3K-AKT signaling pathways in CSM; conditions: dose-dependent manner; cited from earlier work

Structure (SMILES): OC[C@H]1O[C@@H](n2cnc3c(NC4CCCC4)nc(Cl)nc32)[C@H](O)[C@@H]1O [CCPA, 2-Chloro-N-6-cyclopentyladenosine]
CSM viability (MTT), % of first control ([1]; 0.1 μM CCPA): 121.8%
CSM viability (MTT), % of first control ([1]; 10 μM CCPA): 112.2%
DNA synthesis, protein synthesis, and cell number in porcine CSM [2]: increase

solubility at 48 h ([4]; PBS with 0.05% Tween 20, 37 °C, pH 7.4, aqueous with cosolvent or surfactant or cyclodextrin): 1.63 ± 0.08 µg/mL (≈ 5.35 µM)
solubility at 48 h ([4]; PBS, 37 °C, pH 7.4, aqueous buffer): 1.69 ± 0.72 µg/mL (≈ 5.55 µM)
solubility at 48 h ([4]; distilled water, pH adjusted, 37 °C, pH 3, aqueous buffer): ~1.6 µg/mL (≈ 5.26 µM)
solubility at 48 h ([4]; distilled water, pH adjusted, 37 °C, pH 11, aqueous buffer): 38.1 ± 2.3 µg/mL (≈ 125 µM)
solubility at 48 h ([4]; water, 37 °C, pH 7.4, water): 1.62 ± 0.12 µg/mL (≈ 5.32 µM)
period over which release of DPCPX was sustained [5]: ≥ 28 days
Structure (SMILES): CCCn1c(=O)c2[nH]c(C3CCCC3)nc2n(CCC)c1=O [DPCPX, 1,3-dipropyl-8-cyclopentyl xanthine]
decrease in in-stent stenosis ([3]; eluting stent (300 μg DPCPX, 700 μg PLGA) at 1.1 times lumen diameter, vs polymer-coated stent): 53%
adenosine-induced ERK, JNK, and AKT phosphorylation [6]: significantly decreases

Structure (SMILES): CC(=O)O[C@H]1C(=O)[C@@]2(C)[C@H]([C@H](OC(=O)c3ccccc3)[C@]3(O)C[C@H](OC(=O)[C@H](O)[C@@H](NC(=O)c4ccccc4)c4ccccc4)C(C)=C1C3(C)C)[C@]1(OC(C)=O)CO[C@@H]1C[C@@H]2O [Paclitaxel]
decrease in in-stent stenosis ([3]; metabolic syndrome pigs, eluting stent deployed at 1.0 times lumen diameter, vs bare metal stent): 47%
decrease in in-stent stenosis ([3]; metabolic syndrome pigs, eluting stent deployed at 1.3 times lumen diameter, vs bare metal stent): 55%

Structure (SMILES): Nc1ncnc2c1ncn2[C@@H]1O[C@H](CO)[C@@H](O)[C@H]1O [adenosine]
DNA synthesis, protein synthesis, and cell number in porcine CSM [2]: increase
